From PMC5581131, “The novel sphingosine-1-phosphate receptors antagonist AD2900 affects lymphocyte activation and inhibits T-cell entry into the lymph nodes” (Oncotarget, 2017)

System: human PBMCs
Assay: 5-day MLR with Et-18-OCH3, BAPTA-AM or 8-bromo-cAMP preincubation, analogues present throughout
Type: cell-based
Details: 2 μM; 1 hour preincubation with the inhibitors
Method: To determine whether the effect of inhibition of AD2900 on PBMC proliferation is dependent on the same signal transduction pathways, we next examined the capacities of the intracellular Ca^2+ chelator-BAPTA-AM, phosphatidylinositol-specific PLC inhibitor-Et-18-OCH3, and cell-permeate exogenous cAMP-8-bromo-cAMP to alter the suppressive effect of AD2900 and FTY720 on PBMC proliferation. S1P served as a positive control (Figures 2A, 2B, and 2C, respectively). PBMCs were pre-incubated for 1 hour with the inhibitors before the addition of 2 μM AD2900, FTY720, or S1P in the MLR experiment. The inhibitors and the analogues were present in the culture throughout the allogeneic activation. AD2900 suppression of PBMC proliferation was reduced from 59% ± 3% to 32% ± 7% by the exogenous cAMP. BAPTA-AM also partially reversed AD2900 suppression of PBMC proliferation from 59% ± 3% to 32% ± 3%, yet Et-18-OCH3 had no effect (Figure 2A).
Figure 2 Effect of AD2900 on proliferation is dependent on cAMP reduction and calcium signal transduction The effect of Edelfosine (Et-18-OCH3) (Et), BAPTA-AM (BAPTA), or 8-bromo-cAMP (8-b-CAMP) on the inhibition of PBMC proliferation was tested in a 5-day MLR experiment. The cells were incubated with 1 μM Edelfosine, 0.2 μM BAPTA-AM, or 5 μM 8-bromo-cAMP for 1 hour before the addition of sphingolipid analogues, 2 μM AD2900 (AD) (A), FTY720 (FTY) (B), or S1P (C). Significances are compared to AD2900/FTY/S1P without preincubation, respectively. Graphs summarize the results of at least four independent experiments. Results of Student’s t-test: *(P < 0.05, two-tailed test), ** (P < 0.01, two-tailed test).
Human PBLs were collected from human whole blood collected from healthy donors. Subsequently, the cells were centrifuged on a Ficoll-Paque gradient (Fresenius Kabi Norge AS, Oslo, Norway) and were isolated from the interphase layer. For the human MLR experiment, PBMCs from one healthy donor were pretreated for 1 day with AD2900, AD2730, AD2750, YZ297, YZ158, FTY720, or SEW2871. After 24 h, cells were washed and plated at a concentration of 5 × 10^4 cells/well in round bottom 96-well plates containing RPMI-1640 medium Supplemented with 10% human AB serum, 1% penicillin/streptomycin, and 1% l-glutamine (Beit Haemek, Israel). PBMCs from a second donor were irradiated at 3000 γ dosage and added to the plate in a 1:1 ratio with the first donor cells. The cells were cultured for 5 days. For the thymidine incorporation assay, after 4 days of co-culture, cells were pulsed with ^3H-thymidine at 1 μCi (0.037MBq) per well (PerkinElmer, MA, USA) for 16 additional hours and then harvested onto glass-fiber filters. ^3H-thymidine incorporation was measured using Top Count. NXT (PerkinElmer, UK). In other experiments, the supernatant was harvested after 5 days of co-culture for IFN-γ and TNF-α cytokine ELISA measurements (eBioscience, CA, USA). The cells were then collected for assessing apoptosis by FACS in MACSQuant analyzer (Miltenyi Biotech, Germany). In another set of experiments, the PBMCs of two donors were mixed. Sphingolipid analogues were then added to the culture and sustained through the 5 days of the MLR experiment.

## CCCCCCCCCCCCC/C=C/[C@@H](O)[C@@H](N)COP(=O)(O)O [S1P, Sphingosine-1-phosphate]
  effect of Et-18-OCH3, BAPTA-AM and 8-bromo-cAMP on suppression of PBMC proliferation: reversed by all three inhibitors
